Experimental data taken from the supplement of paper PMC10307832.

Legend:
Assay in all cases: relative viability (nuclei count vs DMSO), 5 days (fraction); higher = more cells survive
[1] = compound: CCN1C(=O)C2=CC(=C(N=C2N(C1=O)C3CC3)N)C(=O)N + C[C@]1(O)C[C@@H](c2nc(-c3ccc4ccc(-c5ccccc5)nc4c3)c3c(N)nccn32)C1 [Linsitinib] (partner 1 µM)
Outline: (§1)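 Relative viability was taken as the ratio of nuclei in treated wells to nuclei in vehicle wells. Lung cancer cell lines in 1536-well plates received compounds by pin tool one day after seeding, either one drug alone or a fixed anchor-drug dose plus five library-drug doses (not always all listed) in √10 steps. Nuclei were counted on 4× images after 5 days of treatment, and values are medians of duplicate plates.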

[2] = compound: CCN1C(=O)C2=CC(=C(N=C2N(C1=O)C3CC3)N)C(=O)N + NC(=O)Nc1cc(-c2cccc(F)c2)sc1C(=O)N[C@H]1CCCNC1 [AZD7762] (partner 0.2 µM)
Outline: as §1

[3] = compound: CCN1C(=O)C2=CC(=C(N=C2N(C1=O)C3CC3)N)C(=O)N + O=C(c1cc(Cc2n[nH]c(=O)c3ccccc23)ccc1F)N1CCN(C(=O)C2CC2)CC1 [Olaparib] (partner 8 µM)
Outline: as §1

[4] = compound: CCN1C(=O)C2=CC(=C(N=C2N(C1=O)C3CC3)N)C(=O)N + CCNC(=O)c1noc(-c2cc(C(C)C)c(O)cc2O)c1-c1ccc(CN2CCOCC2)cc1 [Luminespib] (partner 0.01 µM)
Outline: as §1

[5] = compound: CCN1C(=O)C2=CC(=C(N=C2N(C1=O)C3CC3)N)C(=O)N + CC(=O)c1c(C)c2cnc(Nc3ccc(N4CCNCC4)cn3)nc2n(C2CCCC2)c1=O [Palbociclib] (partner 0.5 µM)
Outline: as §1

Cell Line | relative viability ([1]; first compound 0.253 µM) | relative viability ([1]; first compound 0.8 µM) | relative viability ([1]; first compound 2.53 µM) | relative viability ([1]; first compound 8 µM) | relative viability ([2]; first compound 0.253 µM) | relative viability ([2]; first compound 0.8 µM) | relative viability ([2]; first compound 2.53 µM) | relative viability ([2]; first compound 8 µM) | relative viability ([3]; first compound 0.253 µM) | relative viability ([3]; first compound 0.8 µM) | relative viability ([3]; first compound 2.53 µM) | relative viability ([3]; first compound 8 µM) | relative viability ([4]; first compound 0.253 µM) | relative viability ([4]; first compound 0.8 µM) | relative viability ([4]; first compound 2.53 µM) | relative viability ([4]; first compound 8 µM) | relative viability ([5]; first compound 0.253 µM) | relative viability ([5]; first compound 0.8 µM) | relative viability ([5]; first compound 2.53 µM) | relative viability ([5]; first compound 8 µM)
201T | 1 | 0.991 | 0.952 | 1.01 | 0.609 | 0.677 | 0.64 | 0.615 | 0.87 | 0.869 | 0.832 | 0.901 | 1.06 | 1.04 | 1.02 | 1.08 | 0.392 | 0.348 | 0.38 | 0.369
A-427 | 1.24 | 1.11 | 1.04 | 1.1 | 0.73 | 0.791 | 0.731 | 0.789 | 0.763 | 0.792 | 0.703 | 0.744 | 1.13 | 1.26 | 1.24 | 1.13 | 0.497 | 0.522 | 0.486 | 0.535
ABC-1 | 0.825 | 0.989 | 0.72 | 0.876 | 0.479 | – | 1.15 | 0.954 | 0.92 | – | 1.05 | 0.742 | 0.869 | 0.4 | 0.639 | 0.518 | 0.819 | – | 0.709 | 0.799
BEN | 0.961 | 0.92 | 0.919 | 0.954 | 0.789 | 0.568 | 0.864 | 0.689 | 1.16 | 1.09 | 1.01 | 1.08 | 0.469 | 0.427 | 0.377 | 0.351 | 0.448 | 0.478 | 0.411 | 0.456
CAL-12T | 0.792 | 0.773 | 0.721 | 0.776 | 0.619 | 0.479 | 0.664 | 0.567 | 0.734 | 0.717 | 0.682 | 0.658 | 0.294 | 0.792 | 0.193 | 0.436 | 0.452 | 0.448 | 0.475 | 0.418
COR-L23 | 0.89 | 0.9 | 0.776 | 1.03 | – | – | – | – | 0.413 | 0.319 | 0.19 | 0.398 | 0.697 | 0.653 | 0.657 | 0.765 | 0.355 | 0.334 | 0.322 | 0.266
COR-L 105 | 1.12 | 1.04 | 0.945 | 0.939 | – | – | – | – | 0.728 | 0.768 | 0.779 | 0.677 | 0.807 | 0.737 | 0.623 | 0.641 | 0.377 | 0.431 | 0.397 | 0.366
ChaGo-K-1 | – | – | – | – | 0.873 | 0.863 | 0.89 | 0.872 | 0.442 | 0.437 | 0.404 | 0.434 | 0.541 | 0.508 | 0.636 | 0.53 | 0.898 | 0.97 | 0.897 | 0.99
EKVX | 1.03 | 1.03 | 0.934 | 0.998 | 0.824 | 0.701 | 0.749 | 0.698 | 0.849 | 0.972 | 0.792 | 0.682 | 0.94 | 0.952 | 0.772 | 0.722 | 0.63 | 0.471 | 0.401 | 0.348
EMC-BAC-2 | 0.848 | 0.837 | 0.754 | 0.888 | 1.18 | – | 1.04 | 1.14 | 0.546 | – | 0.498 | 0.487 | 1.29 | 1.08 | 1.03 | 1.19 | 0.543 | – | 0.47 | 0.468
EPLC-272H | 1.18 | 1.28 | 1.37 | 1.36 | 0.229 | 0.206 | 0.278 | 0.193 | – | 0.752 | 0.975 | 1.08 | 0.253 | 0.227 | 0.465 | 0.445 | 0.309 | 0.358 | 0.331 | 0.358
H3255 | 0.879 | 0.908 | 0.835 | 1.03 | 0.884 | 0.922 | 0.919 | 0.832 | 0.567 | 0.556 | 0.567 | 0.633 | 0.834 | 0.773 | 0.883 | 0.932 | 0.321 | 0.335 | 0.327 | 0.279
HARA | 0.971 | 0.942 | 0.829 | 0.94 | 0.661 | 0.304 | 0.296 | 0.315 | 0.897 | 0.904 | 0.915 | 0.841 | 0.706 | 0.671 | 0.843 | 0.929 | 0.265 | 0.32 | 0.195 | 0.229
HCC-78 | 0.516 | 0.434 | 0.482 | 0.675 | 0.56 | 0.592 | 0.626 | 0.735 | 0.807 | 0.902 | 0.691 | 0.959 | – | – | – | – | 0.472 | 0.463 | 0.509 | 0.449
